Consider 96 compounds from PubChem BioAssay AID1033 (Sanford-Burnham Center for Chemical Genomics, 2008).

Activity calls are given as the source filed them. No rule for the calls is given here.

The assay has as its target Chaperone protein DnaK (Escherichia coli (strain K12)) (UniProt P0A6Y8). The assay can be described thus: E. coli DnaK SBD ligand binding – biophysical, NMR, chaperone (AID 1033). As to conditions: Purified DnaK SBD.

Chain of Chaperone protein DnaK (Escherichia coli (strain K12)) (P0A6Y8 whole entry, looked up): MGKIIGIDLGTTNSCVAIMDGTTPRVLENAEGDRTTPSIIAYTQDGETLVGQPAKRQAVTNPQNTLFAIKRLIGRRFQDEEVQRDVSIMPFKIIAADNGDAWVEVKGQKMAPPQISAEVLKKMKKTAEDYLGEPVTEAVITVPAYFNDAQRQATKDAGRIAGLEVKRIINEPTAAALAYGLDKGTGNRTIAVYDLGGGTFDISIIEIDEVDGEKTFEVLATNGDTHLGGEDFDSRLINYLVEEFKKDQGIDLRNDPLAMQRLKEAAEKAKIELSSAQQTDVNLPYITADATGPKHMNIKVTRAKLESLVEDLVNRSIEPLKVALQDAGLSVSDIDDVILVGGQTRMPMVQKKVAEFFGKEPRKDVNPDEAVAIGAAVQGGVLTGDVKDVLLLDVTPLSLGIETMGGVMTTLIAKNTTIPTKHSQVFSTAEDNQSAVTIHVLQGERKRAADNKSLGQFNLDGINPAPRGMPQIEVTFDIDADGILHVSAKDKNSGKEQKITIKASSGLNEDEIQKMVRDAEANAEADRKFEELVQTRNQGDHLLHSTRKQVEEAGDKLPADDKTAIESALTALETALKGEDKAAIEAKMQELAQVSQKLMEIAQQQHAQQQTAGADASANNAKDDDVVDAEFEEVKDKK

What is called Kd is the equilibrium constant for the complex coming apart. Turning to `CC1CC[C@@]2(OC1)O[C@H]1CC3C4CC[C@@H]5C[C@@H](O)CC[C@]5(C)C4CC[C@]3(C)[C@H]1[C@@H]2C` (stereo partly specified), the Kd was > 4 mM (inactive).

With `C=C1[C@H]2CC[C@@]3(C)[C@H](c4ccoc4)OC(=O)C[C@]13O[C@H]1C[C@H](O)C(C)(C)[C@H](CC(=O)OC)[C@]12C`, the Kd is > 4 mM (inactive). For `CCOC(=O)C1CCN(c2ncnc3nc[nH]c23)CC1`, the Kd was > 4 mM (inactive). Then `Clc1ccccc1OCCn1ccnc1`, with > 4 mM (inactive). `CSc1ncnc2nc[nH]c12`: the Kd is > 4 mM (inactive).

As to `COc1ccc(Cl)c(S(=O)(=O)N2CCCC2)c1`, the Kd is > 4 mM (inactive). The result for `CC(=O)Oc1ccc(/C=C/c2cc(OC(C)=O)cc(OC(C)=O)c2)cc1` reads > 4 mM (inactive); that for `NC(=O)c1cccc(Cl)n1`, > 4 mM (inactive). The result for `c1ccc(Cc2nn3c(-c4ccncc4)nnc3s2)cc1` reads > 4 mM (inactive). Then `Nc1nc2c3ccccc3nc(Cc3ccccc3)n2n1`, with > 4 mM (inactive).

For `C=C1C2CC[C@@]3(C)[C@H](c4ccoc4)OC(=O)C[C@]13O[C@H]1CC(O)C(C)(C)C(CC(=O)OC)[C@@]21C` (stereo partly specified), the Kd is > 4 mM (inactive).

`c1ccc(Cc2nnc(-c3ccccc3)o2)cc1`: the Kd is > 4 mM (inactive). `OCC1CNc2ccccc2O1` (stereo unspecified): the Kd is > 4 mM (inactive). The result for `CC(=O)c1c(C)nc(-c2ccc(Cl)cc2Cl)n1O` reads > 4 mM (inactive). For the compound `CC(=O)c1sc2nc(N)nn2c1C`, the Kd was > 4 mM (inactive). The result for `CN1C(=O)/C(=C/c2ccc(O)cc2O)SC1=S` reads > 4 mM (inactive); that for `Cc1csc2nc(=O)c3ccccc3n12`, > 4 mM (inactive); that for `Cc1cc(N(CN2CCCC2=O)C(=O)c2ccccc2)no1`, > 4 mM (inactive). Then `O=C(CC1Nc2ccccc2NC1=O)Nc1ccc(O)cc1` (stereo unspecified), with > 4 mM (inactive); and `Cc1sc2nc(NCCO)[nH]c(=O)c2c1C`, with > 4 mM (inactive). The result for `Cc1c(C(=O)Nc2ccncc2)oc2c1C(=O)CC(C)(C)C2` reads > 4 mM (inactive); that for `O=C1C=CC2=C3c4cc(O)c(O)cc4CC3(O)COC2=C1O` (stereo unspecified), > 4 mM (inactive); that for `NC(=O)Cn1nc(-c2ccco2)ccc1=O`, > 4 mM (inactive). Take `CCCS(=O)(=O)N1CCN(c2ccccn2)CC1`: the Kd is > 4 mM (inactive). In the case of `COc1ccc2c(c1)OC[C@@H](Cc1ccc(OC)c(OC)c1)[C@@H]2O`, the Kd is > 4 mM (inactive). The result for `Cc1cn(C(=O)CN2C(=O)c3ccccc3C2=O)c(C)n1` reads > 4 mM (inactive). The result for `CCOc1nc(C)ccc1-c1noc(-c2ccco2)n1` reads > 4 mM (inactive). The result for `COc1c2c(cc3c1OCO3)C13C=C[C@H](OC)CC1N(C2)CC3O` (stereo partly specified) reads > 4 mM (inactive). In the case of `CC(=O)N1CCN(C2CCSC2)CC1` (stereo unspecified), the Kd was > 4 mM (inactive). Then `OCc1ccc(-n2ccnc2)cc1`, with > 4 mM (inactive); and `COC(=O)/C(=C1\OC(=O)C(c2ccccc2)C1=O)c1ccccc1` (stereo unspecified), with > 4 mM (inactive). The result for `NC(=O)Cn1cnc(-c2ccc(F)cc2)c1` reads > 4 mM (inactive); that for `COC(=O)CSc1nnc(-c2ccc(C(=O)O)cc2)o1`, > 4 mM (inactive). With `O=c1c(O)c(-c2ccccc2)oc2ccccc12`, the Kd was > 4 mM (inactive). Consider `CC1(C)C2CC(=O)[C@]3(C)C(CC[C@@]4(C)[C@H](c5ccoc5)OC(=O)[C@H]5O[C@]543)[C@@]2(C)C(=O)C[C@H]1O` (stereo partly specified), for which the Kd is > 4 mM (inactive). Turning to `O=C(Nc1ccncc1)c1c(F)cccc1F`, the Kd is > 4 mM (inactive).

In the case of `CC(=O)C1CCC2C3CCC4C[C@H](O)CCC4(C)C3C[C@H](O)C12C` (stereo partly specified), the Kd is > 4 mM (inactive). As for `c1ccc2c(c1)ncn2CCn1cnc2ccccc21`, the Kd is > 4 mM (inactive). Take `Fc1cccc(F)c1CN1CCN(c2ncccn2)CC1`: the Kd was > 4 mM (inactive).

For `O=c1oc2c(O)c(O)cc3c(=O)oc4c(O)c(O)cc1c4c23`, the Kd is > 4 mM (inactive). The result for `O=C(O)c1cc2ccccc2s1` reads > 4 mM (inactive); that for `CCSc1n[nH]c(=O)[nH]c1=O`, > 4 mM (inactive); that for `Cc1oc2nc3c(c(=O)[nH]c(=O)n3C)n2c1C`, > 4 mM (inactive).

For the compound `CC1=C(CCC(=O)O)c2cc3nc(cc4[nH]c(cc5[nH]c(cc1n2)c(C)c5C(C)O)c(C)c4C(C)O)C(C)=C3CCC(=O)O` (stereo unspecified), the Kd is > 4 mM (inactive). Consider `NC1=NC(=O)/C(=C\c2cccnc2)S1`, for which the Kd is > 4 mM (inactive). Regarding `Nc1ccn(C2O[C@H](CO)[C@@H](O)[C@H]2O)c(=O)n1` (stereo partly specified), the Kd is > 4 mM (inactive). Regarding `O=C(O[C@@H]1Cc2c(O)cc(O)cc2O[C@@H]1c1cc(=O)c(O)c2c(O)c(O)cc([C@H]3Oc4cc(O)cc(O)c4C[C@H]3O)c2c1)c1cc(O)c(O)c(O)c1`, the Kd was > 4 mM (inactive). For the compound `O=C(/C=C(\O)c1ccccc1)c1ccccc1O`, the Kd was > 4 mM (inactive). For the compound `CSc1nn(-c2ccccc2)c(N)c1C#N`, the Kd is > 4 mM (inactive). As to `Cn1nc(C(C)(C)C)cc1N`, the Kd was > 4 mM (inactive). Then `O=C(O)c1ccccc1C(=O)NCC1CCCO1` (stereo unspecified), with > 4 mM (inactive); and `O=C(Nc1cccnc1)c1c(F)cccc1F`, with > 4 mM (inactive); and `CC(O)C(=O)N/N=C/c1ccccc1` (stereo unspecified), with > 4 mM (inactive). Regarding `O=C(O)CSc1nnc(-c2cccs2)o1`, the Kd is > 4 mM (inactive). As for `CC(=O)c1cccc(NS(=O)(=O)N2CCCCC2)c1`, the Kd is > 4 mM (inactive). Then `O=C1CSC(=O)N1CN1CCCC1`, with > 4 mM (inactive); and `COC1=CC(=O)C(O)=C/C1=C\C=C\c1ccccc1`, with > 4 mM (inactive); and `O=C(O)c1snnc1-c1ccccc1`, with > 4 mM (inactive). Then `CCC(=O)NC(=S)Nc1ccc(O)cc1`, with > 4 mM (inactive); and `O=c1c(-c2cccs2)[n+]([O-])c2ccccc2n1O`, with > 4 mM (inactive); and `COc1ccccc1-c1noc(-c2ccco2)n1`, with > 4 mM (inactive). Then `CCOC(=O)c1ccc(F)cc1F`, with > 4 mM (inactive). `CC1NC(C(=O)O)Cc2c1[nH]c1ccccc21` (stereo unspecified): the Kd is > 4 mM (inactive). As for `CCCCN1C(=O)C2CC/C(=N/O)CC2C1=O` (stereo unspecified), the Kd was > 4 mM (inactive). As for `OCc1csc(-c2ccccc2)n1`, the Kd is > 4 mM (inactive). Then `COC(=O)[C@@H]1OC(=O)C2OC23[C@@]1(C)CCC1[C@@]2(C)CCC(=O)C(C)(C)C2C[C@@H](OC(C)=O)[C@]13C` (stereo partly specified), with > 4 mM (inactive). Take `COC(=O)c1ccc(/C=C2/NC(=S)NC2=O)cc1`: the Kd is > 4 mM (inactive).

In the case of `C[C@@H]1O[C@@H](O[C@H]2[C@H](Oc3cc(O)c4c(=O)cc(-c5ccc(O)cc5)oc4c3)O[C@H](CO)[C@@H](O)[C@@H]2O)[C@H](O)[C@H](O)[C@H]1O`, the Kd was > 4 mM (inactive). Turning to `CNCc1ccccc1`, the Kd is > 4 mM (inactive). Then `COc1ccc(-c2oc3c(CC=C(C)C)c(O[C@@H]4O[C@H](CO)[C@@H](O)[C@H](O)[C@H]4O)cc(O)c3c(=O)c2O[C@@H]2O[C@@H](C)[C@H](O)[C@@H](O)[C@H]2O)cc1`, with > 4 mM (inactive); and `Nc1nc(-c2nc3ccccc3[nH]2)cs1`, with > 4 mM (inactive); and `CSc1ccccc1NC(=O)c1cnccn1`, with > 4 mM (inactive). The result for `O=C1N=C(N2CCOCC2)S/C1=C\c1cccnc1` reads > 4 mM (inactive); that for `Cc1cc(C)n(S(=O)(=O)c2ccc(C)c(C)c2C)n1`, > 4 mM (inactive); that for `Nc1cc(C(F)(F)F)ccc1N1CCOCC1`, > 4 mM (inactive). `O=C1NC(=S)N/C1=C/c1ccc(O)c(Cl)c1`: the Kd was > 4 mM (inactive). Then `O=C(O)C1C(=O)NCC1c1ccccc1` (stereo unspecified), with > 4 mM (inactive); and `c1ccc(CSc2ncccn2)cc1`, with > 4 mM (inactive). As for `S=C(c1cccnc1)N1CCOCC1`, the Kd was > 4 mM (inactive). Take `CCN(CC)S(=O)(=O)c1ccc(F)cc1`: the Kd was > 4 mM (inactive). The result for `Cc1ccc(/C=C/C(=O)O)cc1S(=O)(=O)NCCO` reads > 4 mM (inactive); that for `CCOC(=O)CSc1nnc(C)c(=O)[nH]1`, > 4 mM (inactive); that for `CCn1c(-c2ccccc2)n[nH]c1=S`, > 4 mM (inactive). For the compound `O=C(Nc1nncs1)Oc1ccccc1`, the Kd is > 4 mM (inactive). As for `CC1(C)CC2C1CCC1(C)OC2(C)CCC1O` (stereo unspecified), the Kd is > 4 mM (inactive). Turning to `COc1nc(-c2ccccc2)ccc1-c1noc(C)n1`, the Kd is > 4 mM (inactive). As for `COc1ccc([C@@H](C)C(=O)c2ccc(O)cc2O)cc1`, the Kd is > 4 mM (inactive). Then `O=C(O)CNc1ncnc2nc[nH]c12`, with > 4 mM (inactive). The result for `O=S1(=O)NC(=NCc2ccco2)c2ccccc21` reads > 4 mM (inactive); that for `O=C1NC(=O)/C(=C\c2ccco2)S1`, > 4 mM (inactive).

Regarding `O=C1CCC(=O)N1c1cccnc1`, the Kd is > 4 mM (inactive). For the compound `Nc1cccc(NC(=O)c2cccs2)c1`, the Kd is > 4 mM (inactive). As to `O=C1NC(=S)N/C1=C\c1ccccc1F`, the Kd is > 4 mM (inactive). For `C/C=C(\C)C(=O)O[C@H]1C[C@@H](OC(C)=O)[C@@]2(C(=O)OC)CO[C@@H]3C2[C@]12CO[C@](O)(C(=O)OC)[C@H]2[C@](C)(C12O[C@@]1(C)[C@H]1C[C@@H]2OC2OC=C[C@@]21O)[C@@H]3O` (stereo partly specified), the Kd is > 4 mM (inactive). Then `COc1cc(OC)c(OC)cc1C=O`, with > 4 mM (inactive); and `Cn1cnc2nc3n(c2c1=O)CCC3`, with > 4 mM (inactive).
